Laboratory results published in article PMC3419744, “Anti-Tumor Activity of a Novel HS-Mimetic-Vascular Endothelial Growth Factor Binding Small Molecule” (PLoS ONE, 2012).
Entries after “also recorded” stand apart in the source; their conditions may differ. Where two headings read alike, the source gives them in different places.

How the values were obtained:
VEGF = molecular target: T1, VEGF (Homo sapiens, UniProt P15692); assay: SPR imaging of immobilized small molecules binding to VEGF; conditions: compounds immobilized on chip, growth factor 50 µg/mL
T1 construct: purchased Wako Pure Chemicals Co. (Osaka, Japan)
T1 sequence (P15692 1-191 isoform P15692-4): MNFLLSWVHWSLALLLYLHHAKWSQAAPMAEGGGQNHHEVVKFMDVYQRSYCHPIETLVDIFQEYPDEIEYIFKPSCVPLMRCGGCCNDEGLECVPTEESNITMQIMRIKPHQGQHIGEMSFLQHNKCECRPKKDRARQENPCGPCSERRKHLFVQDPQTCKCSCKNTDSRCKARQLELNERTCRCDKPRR
Method: (§1) The chip was washed successively with ethanol, water, and ethanol. Then the chip is air dried to obtain the photo reactive chip. The compounds 1–9 were spotted on the chip (10 mM), washed, and dried in vacuo, and then irradiated at 365 nm under a UV transmission filter (Sigma-Koki, Japan). The compounds were immobilized onto the photo-reactive linker that bound to the gold-surface of the glass chip was set into an SPR imaging instrument (TOYOBO), and each growth factor (50 µg/mL) was injected onto the array surface at 0.1 ml/min and incubated for 10 min. The SPR image and signal data were collected with an SPR analysis program (TOYOBO). The SPR difference image was constructed by using the Scion Image program (Scion, MD).

[1] = molecular target: T2, VEGF165 binding to immobilised heparin (Homo sapiens, UniProt P15692); assay: BIAcore analysis of VEGF165 binding to immobilised heparin; conditions: VEGF165 250 nM
T2 construct: purchased Wako Pure Chemicals Co. (Osaka, Japan)
T2 sequence (P15692 1-191 isoform P15692-4): T1 sequence (P15692 1-191 isoform P15692-4)
Method: The heparin-immobilized sensor chip was prepared as reported earlier. […] The flow rate was kept at a moderate speed ([…]) according to the manufacturer's recommendations.

LM8 cells = assay: Proliferation assay (TetraColor One), LM8 cells; assay type: cell-based, murine; conditions: for IC50: 48 h, NS = not significant, read-out: IC50, inhibition of proliferation, LM8
Method: (§2) Two tumor cell lines such as LM8, LM8G7, and UV♀2 endothelial were used to evaluate the anti-proliferative activity of the compounds. UV♀2 (1×10^4 cells) or LM8 or LM8G7 cells (5×10^3 cells) were seeded in 96-well plate and incubated overnight at 37°C. […] 5 µL of TetraColor One reagent was added and incubated for an additional 2–4 h and the absorbance at 450 nm (Bio-Rad) was measured. […] The results were expressed as a percentage of viable cells relative to cells treated with DMSO. The viability of the cells was expressed in percentage terms and IC50 value was calculated.

LM8G7 cells = assay: Proliferation assay (TetraColor One), LM8G7 cells; assay type: cell-based, murine; conditions: for IC50: NS = not significant, read-out: IC50, inhibition of proliferation, LM8G7
Method: as §2

UV♀2 cells = assay: Proliferation assay (TetraColor One), UV♀2 endothelial cells; assay type: cell-based, mouse; conditions: for IC50: 48 h, serum-containing conditions (10%FBS), NS = not significant, read-out: IC50, inhibition of proliferation, UV♀2
Method: as §2

FGF-2 = molecular target: T3, FGF-2 (Homo sapiens, UniProt P09038); assay: SPR imaging of immobilized small molecules binding to FGF-2; conditions: compounds immobilized on chip, growth factor 50 µg/mL
T3 construct: purchased Wako Pure Chemicals Co. (Osaka, Japan)
Method: as §1

[2] = Mus musculus, LM8G7, 48 h, 48 h

T3 sequence (P09038 134-288): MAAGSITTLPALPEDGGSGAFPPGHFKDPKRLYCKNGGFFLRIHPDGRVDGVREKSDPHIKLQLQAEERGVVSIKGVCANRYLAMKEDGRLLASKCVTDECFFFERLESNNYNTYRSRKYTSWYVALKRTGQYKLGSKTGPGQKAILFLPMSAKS

SMILES	binding to VEGF (SPR signal) (VEGF)	IC50 (LM8 cells; Mus musculus) [µM]	IC50 (LM8G7 cells; [2]) [µM]	IC50 (UV♀2 cells; Mus musculus, Endothelial cell) [µM]	further results
Fc1cccc(F)c1C=Nn1c(S)nnc1-c1ccccc1 [compound 7, 4-[(2,6-difluoro-benzylidene)-amino]-5-phenyl-4H-[1,2,4]triazole-3-thiol]	does not bind VEGF	> 100	> 100	> 100	inhibition of binding of VEGF165 to immobilised heparin [1]: failed to inhibit the binding of VEGF to heparin
Cc1nnc(S)n1N=Cc1c(F)cccc1F [compound 5, 4-[(2,6-Difluoro-benzylidene)-amino]-5-methyl-4H-[1,2,4]triazole-3-thiol]	–	36 ± 6.4	> 100	45 ± 2.1	–
CCc1nnc(S)n1N=Cc1c(F)cccc1F [compound 6, 4-[(2,6-Difluoro-benzylidene)-amino]-5-ethyl-4H-[1,2,4]triazole-3-thiol]	significantly; also recorded: weak binding	64 ± 6.7	23 ± 0.5	14 ± 4.6	effect on proliferation of UV♀2 cells (in words) (UV♀2 cells): moderately inhibited
Cc1ccc(C(=O)Nc2ccc(S(=O)(=O)O)c3cc(S(=O)(=O)O)cc(S(=O)(=O)O)c23)cc1NC(=O)c1cccc(NC(=O)Nc2cccc(C(=O)Nc3cc(C(=O)Nc4ccc(S(=O)(=O)O)c5cc(S(=O)(=O)O)cc(S(=O)(=O)O)c45)ccc3C)c2)c1 [Suramin, reference compound]	–	12 ± 2.8	–	34 ± 1.4	inhibition of proliferation of LM8 cells (in words) (LM8 cells): comparable with the inhibitory activity of compound 8; inhibition of proliferation of LM8G7 cells (in words) (LM8G7 cells): comparable with the inhibitory activity of compound 8; IC50 (LM8G7 cells; Mus musculus, LM8G7, 48 h): 14 ± 24 µM
CCCCc1nc(Cl)c(C=O)n1Cc1cc2c(cc1C)OCO2 [compound 9]	–	–	–	–	IC50 (LM8 cells): 46 ± 6.7 µM; IC50 (LM8G7 cells; 48 h): > 100 µM; IC50 (UV♀2 cells): > 100 µM
N.N.[Cl][Pt][Cl] [Cisplatin, reference compound]	–	–	–	–	IC50 (LM8 cells): 30 ± 24 µM; IC50 (LM8G7 cells; 48 h): 15 ± 0.6 µM; IC50 (UV♀2 cells): 12 ± 0.4 µM
CCCCc1nc(Cl)c(C=O)n1Cc1ccc([N+](=O)[O-])cc1 [compound 8, 2-butyl-5-chloro-3-(4-nitro-benzyl)-3H-imidazole-4-carbaldehyde]	very strongly; also recorded: strongly	–	–	–	binding to FGF-2 (SPR signal) (FGF-2): significantly, although with weaker affinity compared to its VEGF binding; also recorded: weakly; inhibition of binding of VEGF165 to immobilised heparin [1]: inhibited the binding of VEGF165 to the immobilised heparin
